Measured values taken from PMC9389588, “1,6-epi-Cyclophellitol Cyclosulfamidate Is a Bona Fide Lysosomal α-Glucosidase Stabilizer for the Treatment of Pompe Disease” (Journal of the American Chemical Society, 2022).

Columns and labels:
[1] = target: T1, ER α-glucosidase II (GANAB) (Homo sapiens, UniProt Q14697); test: in vitro apparent IC50, GANAB in fibroblast lysates, 4-MU-α-D-glucopyranoside; assay type: biochemical; conditions: apparent IC50; Pompe disease fibroblast lysates; pH 7.0; mean ± SD
T1 construct: GANAB (from Pompe Disease Fibroblast Lysates); endogenous in cells; host or cells: human fibroblasts (lysate)
T1 sequence (Q14697 29-944): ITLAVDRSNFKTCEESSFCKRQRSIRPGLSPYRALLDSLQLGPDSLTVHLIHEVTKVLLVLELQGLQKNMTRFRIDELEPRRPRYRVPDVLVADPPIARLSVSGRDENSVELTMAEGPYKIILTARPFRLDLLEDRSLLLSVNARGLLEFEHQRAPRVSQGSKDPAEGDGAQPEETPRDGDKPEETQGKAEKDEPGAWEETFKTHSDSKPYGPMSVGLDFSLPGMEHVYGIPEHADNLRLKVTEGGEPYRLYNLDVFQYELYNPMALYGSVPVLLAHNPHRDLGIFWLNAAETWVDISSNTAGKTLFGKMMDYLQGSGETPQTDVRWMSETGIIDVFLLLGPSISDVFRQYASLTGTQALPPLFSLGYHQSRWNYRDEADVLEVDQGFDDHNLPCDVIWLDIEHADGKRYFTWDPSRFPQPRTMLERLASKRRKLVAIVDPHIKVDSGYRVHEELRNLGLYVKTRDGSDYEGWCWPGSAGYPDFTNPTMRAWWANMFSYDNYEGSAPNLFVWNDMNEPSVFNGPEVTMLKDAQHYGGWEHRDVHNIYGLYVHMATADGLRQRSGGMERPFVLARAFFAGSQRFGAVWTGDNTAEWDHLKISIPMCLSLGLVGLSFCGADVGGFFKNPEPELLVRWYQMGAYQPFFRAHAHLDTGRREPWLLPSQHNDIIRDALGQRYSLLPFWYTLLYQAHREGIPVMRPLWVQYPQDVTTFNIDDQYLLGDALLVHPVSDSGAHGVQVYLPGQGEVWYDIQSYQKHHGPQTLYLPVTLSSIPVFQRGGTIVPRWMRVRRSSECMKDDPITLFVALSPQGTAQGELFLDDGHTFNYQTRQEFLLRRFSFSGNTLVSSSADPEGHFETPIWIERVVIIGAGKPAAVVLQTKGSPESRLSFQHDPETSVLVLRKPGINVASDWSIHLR
T1 sequence (P14314 15-528 partner): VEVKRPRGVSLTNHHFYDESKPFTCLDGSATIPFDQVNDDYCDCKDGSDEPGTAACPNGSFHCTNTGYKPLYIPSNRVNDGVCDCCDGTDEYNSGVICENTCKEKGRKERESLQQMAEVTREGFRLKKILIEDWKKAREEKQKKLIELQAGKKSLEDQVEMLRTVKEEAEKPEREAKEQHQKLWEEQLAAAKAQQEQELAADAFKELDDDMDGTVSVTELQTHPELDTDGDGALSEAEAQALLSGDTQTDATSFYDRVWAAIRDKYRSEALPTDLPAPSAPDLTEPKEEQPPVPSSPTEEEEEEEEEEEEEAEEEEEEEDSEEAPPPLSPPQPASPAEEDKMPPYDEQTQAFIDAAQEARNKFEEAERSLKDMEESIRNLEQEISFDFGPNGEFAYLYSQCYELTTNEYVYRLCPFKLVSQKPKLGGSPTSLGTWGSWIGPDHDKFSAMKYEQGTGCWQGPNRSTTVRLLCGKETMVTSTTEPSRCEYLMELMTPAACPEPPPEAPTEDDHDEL

[2] = target: α-glucosidase GAA (Myozyme) (Homo sapiens, UniProt P10253); test: in vitro apparent IC50, GAA (Myozyme), 4-MU-α-D-glucopyranoside; assay type: biochemical; parameters: purchased Sanofi Genzyme; conditions: Myozyme 47 nM, pH 4.0, 30 min preincubation, mean ± SD

| Compound | IC50 [1] [µM] | IC50 [2] [µM] |
| --- | --- | --- |
| O=S1(=O)N[C@H]2[C@H](CO)[C@@H](O)[C@H](O)[C@@H](O)[C@H]2O1 [compound 6] | 47 ± 1.75 | 112 ± 2.54 |
| O=S1(=O)N[C@@H]2[C@H](O)[C@@H](O)[C@H](O)[C@@H](CO)[C@@H]2O1 [compound 4, 1,6-epi-cyclophellitol cyclosulfamidate] | 496 ± 30 | 5.17 ± 0.195 |
